# Test results from paper PMC10660311 (ACS Chemical Biology, 2023).
# What was measured:
# DTX3L/PARP9 complex = molecular target: T1, DTX3L/PARP9 complex (Homo sapiens, UniProt Q8IXQ6+Q8TDB6); assay: FP binding of fluorescent AR peptides to DTX3L/PARP9 complex; details: 50 nM peptide, RT 45 min, triplicate
# T1 construct: made in house; host or cells: Sf21 insect cells
# Experimental: Figure 2 Interaction of DTX3L/PARP9 and ADP-ribosylated AR peptides measured by FP assays. […] The reaction mixture was incubated at RT for 45 min, FP measured in a PHERAstar FSX Microplate Reader (BMG Labtech), and the binding curves were fitted for specific binding with GraphPad Prism v 9.3.1. The error bars represent the standard deviations.
# Recombinant PARP9, DTX3L, and DTX3LΔN (N-terminal deletion mutant) were expressed in Sf21 insect cells and purified as previously described.[14] Complex formation of DTX3L/PARP9 or DTX3LΔN/PARP9 was carried out in an equal-molar ratio by incubating the proteins at >1 mg mL^–1 for each on ice for ∼4 h. Fluorescently labeled AR peptides (50 nM final concentration) 1–5 were mixed with various concentrations of the individual recombinant proteins or the protein complexes in a reaction buffer containing 20 mM Tris–HCl (pH 7.5), 50 mM NaCl, 0.1 mM EDTA, and 2 mM DTT, incubated at RT for 45 min and then measured in a PHERAstar FSX Microplate Reader (BMG Labtech). The assays were performed in triplicate. Competition assays were performed with 50 μM ADP-ribose. After correction for signals due to the fluorescent AR peptide alone, polarization values were plotted and analyzed with Prism (GraphPad) using nonlinear fit for specific binding with Hill slope.
# [1] = molecular target: dual ADP-ribosylated AR peptide 1, bis-ADP-ribosylated AR(280-294): CF-RPTPC(ADPr)APLAEC(ADPr)KGSL-OH; assay: fluorescence polarisation; 50 nM CF-labelled AR peptide; recombinant protein or preassembled complex titrated (2500 nM or 2000 nM highest, 2-fold serial dilution); 20 mM Tris-HCl pH 7.5, 50 mM NaCl, 0.1 mM EDTA, 2 mM DTT; RT, 45 min; triplicate; fit for specific binding with Hill slope
Substance,binding to DTX3L/PARP9 (in words) (DTX3L/PARP9 complex),Kd [1] [nM]
"CF-Pro-Leu-Ala-Glu-Cys(5-O-adenosine-diphosphate-α-D-ribosyl)-Lys-Gly-Ser-Leu-OH [Peptide 2, CF-labeled mono-ADPr AR peptide]",near-background level of binding,
DTX3LΔN/PARP9 complex (from UniProt Q8TDB6 1-740; Q8IXQ6 1-854),,> 500
CF-RPTPCAPLAECKGSL-OH [Peptide 6],did not bind significantly,
"CF-Arg-Pro-Thr-Pro-Cys(5-O-adenosine-diphosphate-α-D-ribosyl)-Ala-Pro-Leu-Ala-OH [Peptide 3, CF-labeled mono-ADPr AR peptide]",near-background level of binding,
